In test [1] the test system is weeds. As to the kind of experiment: Pre-emergence test (greenhouse), damage to weeds. Type of test: in vivo. As for the experimental part: (§1) Solvent: 5 parts by weight of acetone
(§2) Emulsifier: 1 part by weight of alkylaryl polyglycol ether
To produce a suitable preparation of active compound, 1 part by weight of active compound is mixed with the stated amount of solvent, the stated amount of emulsifier is added and the concentrate is diluted with water to the desired concentration.
Seeds of the test plants are sown in normal soil. After 24 hours, the soil is sprayed with the preparation of active compounds such that the particular amount of active compound desired is applied per unit area. The concentration of active compound in the spray liquor is chosen such that the particular amount of active compound desired is applied in 1000 liters of water per hectare.
After three weeks, the degree of damage to the plants is rated in % damage in comparison to the development of the untreated control. The figures denote: • 0%=no effect (like untreated control) • 100%=total destruction

Test [2] concerns weeds. As to the kind of experiment: Post-emergence test (greenhouse), damage to weeds. Type of test: in vivo. Conditions: for activity against weeds: test plants of 5-15 cm sprayed, rated after three weeks as % damage vs untreated control. The protocol:
as §1, §2
To product a suitable preparation of active compound, 1 part by weight of active compound is mixed with the stated amount of solvent, the stated amount of emulsifier is added and the concentrate is diluted with water to the desired concentration.
Test plants of a height of 5-15 cm are sprayed with the preparation of active compound such that the particular amounts of active compound desired are applied per unit area. The concentration of the spray liquor is chosen such that the particular amounts of active compound desired are applied in 10001 of water/ha.
After three weeks, the degree of damage to the plants is rated in % damage in comparison to the development of the untreated control.
The figures denote: • 0%=no effect (like untreated control) • 100%=total destruction

[3] abbreviates: 250 g of a.i./ha, after three weeks.
Where [4] appears, read: 8 g of a.i./ha, after three weeks.
Where [5] appears, read: 30 g of a.i./ha, after three weeks, Table B8.
Where [6] appears, read: 15 g of a.i./ha, after three weeks, Table A3.
[7] abbreviates: 30 g of a.i./ha, after three weeks, Table B10.
[8] abbreviates: 60 g of a.i./ha, after three weeks, Table A7.
The mark [9] stands for this setting: 30 g of a.i./ha, after three weeks, Table B9.
[10] abbreviates: 30 g of a.i./ha, after three weeks, Table B11.
The mark [11] stands for this setting: 60 g of a.i./ha, after three weeks, Table A6.
Setting [12] is: 30 g of a.i./ha, after three weeks, Table B12.
Setting [13] is: 30 g of a.i./ha, after three weeks, Table B13.
The mark [14] stands for this setting: 60 g of a.i./ha, after three weeks.

Molecules are shown by their SMILES.

Consider `COc1nc(C)nc(NC(=O)NS(=O)(=O)c2c(C)cccc2OCCF)n1` [(1)], for which, in the test on weeds [1] (setting [3]), the “% damage Alopecurus” value is 100%, the “% damage Amaranthus” value turned out to be 100%, the “% damage Avena fatua” value amounted to 100% and the “% damage Galium” value turned out to be 100%. For the same compound, in the test on weeds [1] (setting [3]), the “% damage Setaria” value is 100% and the “% damage Xanthium” value worked out at 100%. In the test with weeds [2] (setting [3]), the “% damage Abutilon” value was 100%, the “% damage Alopecurus” value was found to be 95%, the “% damage Amaranthus” value is on record as 100% and the “% damage Avena fatua” value worked out at 95%. Besides, in the test on weeds [2] (setting [3]), the “% damage Galium” value is on record as 100%, the “% damage Setaria” value turned out to be 100% and the “% damage Sinapis” value came out at 100%.
For the compound `COc1nc(C)nc(NC(=O)NS(=O)(=O)c2c(C)cccc2OCCF)n1` [(2)], in the test with weeds [1] (setting [3]), the “% damage Alopecurus” value is 100%, the “% damage Amaranthus” value is 100%, the “% damage Avena fatua” value was found to be 95% and the “% damage Galium” value was found to be 100%. In addition, in the test with weeds [1] (setting [3]), the “% damage Setaria” value was 100% and the “% damage Xanthium” value came to 95%. In the test on weeds [2] (setting [3]), the “% damage Abutilon” value came out at 100%, the “% damage Alopecurus” value was 100%, the “% damage Amaranthus” value turned out to be 100% and the “% damage Avena fatua” value stood at 100%. In addition, in the test on weeds [2] (setting [3]), the “% damage Galium” value worked out at 100%, the “% damage Setaria” value was 100% and the “% damage Sinapis” value is 100%.
Consider `COc1nc(C)nc(NC(=O)NS(=O)(=O)c2c(OCCF)cccc2C(F)(F)F)n1` [(3)], for which, in the test on weeds [1] (setting [4]), the “% damage Abutilon” value stood at 100%, the “% damage Cyperus” value is reported as 100%, the “% damage Echinochloa” value is 100% and the “% damage Galium” value was found to be 100%. Besides, in the test with weeds [1] (setting [4]), the “% damage Solanum” value came out at 100%, the “% damage Stellaria” value is recorded as 100% and the “% damage Veronica” value was determined as 100%. Further, in the test on weeds [2] (setting [5]), the “% damage Abutilon” value stood at 100%, the “% damage Alopecurus” value came to 95%, the “% damage Amaranthus” value was determined as 100% and the “% damage Lolium” value was found to be 95%. In addition, in the test with weeds [2] (setting [5]), the “% damage Matricaria” value is given as 100%, the “% damage Viola” value was 100% and the “% damage Xanthium” value is reported as 100%.
On to `COc1nc(C)nc(NC(=O)[N-]S(=O)(=O)c2c(OCCF)cccc2C(F)(F)F)n1.[Na+]` [(5)], for which, in the test with weeds [1] (setting [6]), the “% damage Amaranthus” value amounted to 100%, the “% damage Datura” value is on record as 100%, the “% damage Echinochloa” value is reported as 100% and the “% damage Galium” value amounted to 100%. In addition, in the test on weeds [1] (setting [6]), the “% damage Matricaria” value turned out to be 100% and the “% damage Viola” value is reported as 100%. In the test on weeds [2] (setting [7]), the “% damage Abutilon” value amounted to 100%, the “% damage Alopecurus” value is 95%, the “% damage Amaranthus” value was 100% and the “% damage Ipomoea” value came out at 100%. Moreover, in the test with weeds [2] (setting [7]), the “% damage Lolium” value worked out at 95%, the “% damage Matricaria” value was 100% and the “% damage Stellaria” value came to 100%.
Regarding `CCc1cccc(OCCCF)c1S(=O)(=O)NC(=O)Nc1nc(C)cc(C)n1` [(6)], in the test on weeds [1] (setting [8]), the “% damage Abutilon” value was 90%, the “% damage Alopecurus” value amounted to 80%, the “% damage Amaranthus” value amounted to 90% and the “% damage Galium” value was 90%. In addition, in the test on weeds [1] (setting [8]), the “% damage Setaria” value is given as 95% and the “% damage Sinapis” value was 90%. For the same compound, in the test on weeds [2] (setting [9]), the “% damage Abutilon” value is recorded as 90%, the “% damage Alopecurus” value is 90%, the “% damage Amaranthus” value turned out to be 90% and the “% damage Ipomoea” value is 100%. Moreover, the “% damage Xanthium” value in the test with weeds [2] (setting [9]) turned out to be 95%.
Take `COc1cc(OC)nc(NC(=O)NS(=O)(=O)c2c(C)cccc2OCCCF)n1` [(12)]: in the test with weeds [2] (setting [10]), the “% damage Abutilon” value was 95%, the “% damage Amaranthus” value is reported as 95%, the “% damage Datura” value was determined as 95% and the “% damage Echinochloa” value worked out at 90%.
With `COc1nc(C)nc(NC(=O)NS(=O)(=O)c2c(C)cccc2OCCCF)n1` [(13)], in the test with weeds [2] (setting [7]), the “% damage Abutilon” value stood at 100%, the “% damage Alopecurus” value is given as 90%, the “% damage Amaranthus” value is 100% and the “% damage Ipomoea” value was 90%. Besides, in the test with weeds [2] (setting [7]), the “% damage Lolium” value is listed as 90%, the “% damage Matricaria” value is recorded as 100% and the “% damage Stellaria” value was 100%.
`COc1nc(NC(=O)NS(=O)(=O)c2c(C)cccc2OCCCF)nc(OC)n1` [(15)]: in the test with weeds [1] (setting [11]), the “% damage Abutilon” value turned out to be 95%, the “% damage Alopecurus” value is recorded as 95%, the “% damage Amaranthus” value came out at 100% and the “% damage Echinochloa” value is given as 95%. In the test with weeds [1] (setting [11]), the “% damage Galium” value is 95% and the “% damage Sinapis” value stood at 95%. In the test with weeds [2] (setting [7]), the “% damage Abutilon” value stood at 95%, the “% damage Alopecurus” value was found to be 90%, the “% damage Amaranthus” value is 100% and the “% damage Ipomoea” value amounted to 100%. Further, in the test with weeds [2] (setting [7]), the “% damage Lolium” value was 90%, the “% damage Matricaria” value is listed as 100% and the “% damage Stellaria” value stood at 100%.
As for `COc1cc(Cl)nc(NC(=O)NS(=O)(=O)c2c(OCCF)cccc2C(F)(F)F)n1` [(20)], in the test with weeds [1] (setting [8]), the “% damage Abutilon” value amounted to 90%, the “% damage Alopecurus” value came out at 90%, the “% damage Amaranthus” value is 95% and the “% damage Galium” value was determined as 95%. For the same compound, in the test on weeds [1] (setting [8]), the “% damage Setaria” value stood at 100% and the “% damage Sinapis” value is reported as 95%. Besides, in the test with weeds [2] (setting [12]), the “% damage Echinochloa” value is 90%, the “% damage Ipomoea” value amounted to 100%, the “% damage Matricaria” value is 95% and the “% damage Polygonum” value amounted to 95%. The “% damage Xanthium” value in the test with weeds [2] (setting [12]) is listed as 100%.
`COc1nc(NC(=O)NS(=O)(=O)c2c(OCCF)cccc2C(F)(F)F)nc(OC)n1` [(21)]: in the test on weeds [1] (setting [8]), the “% damage Abutilon” value came to 90%, the “% damage Alopecurus” value is 90%, the “% damage Amaranthus” value came out at 95% and the “% damage Galium” value is given as 95%. In addition, in the test on weeds [1] (setting [8]), the “% damage Setaria” value is given as 100% and the “% damage Sinapis” value is recorded as 100%. In the test on weeds [2] (setting [13]), the “% damage Avena fatua” value came out at 100%, the “% damage Datura” value worked out at 100%, the “% damage Lolium” value amounted to 100% and the “% damage Matricaria” value is 100%. Moreover, the “% damage Solanum” value with weeds [2] (setting [13]) came out at 100%.
As to `CN(C)c1nc(NC(=O)NS(=O)(=O)c2c(OCCF)cccc2C(F)(F)F)nc(OCC(F)(F)F)n1` [(22)], in the test on weeds [2] (setting [14]), the “% damage Alopecurus” value is recorded as 90%, the “% damage Amaranthus” value was 100%, the “% damage Galium” value worked out at 95% and the “% damage Ipomoea” value amounted to 100%. Besides, in the test on weeds [2] (setting [14]), the “% damage Setaria” value is 95% and the “% damage Sinapis” value was 95%.
As for `COc1cc(OC)nc(NC(=O)NS(=O)(=O)c2c(C)cccc2OCCF)n1` [(24)], in the test on weeds [1] (setting [3]), the “% damage Alopecurus” value was found to be 100%, the “% damage Amaranthus” value was 100%, the “% damage Avena fatua” value stood at 95% and the “% damage Galium” value worked out at 100%. Further, in the test on weeds [1] (setting [3]), the “% damage Setaria” value amounted to 95% and the “% damage Xanthium” value was 95%. In the test on weeds [2] (setting [3]), the “% damage Abutilon” value worked out at 100%, the “% damage Alopecurus” value came out at 100%, the “% damage Amaranthus” value was 100% and the “% damage Avena fatua” value came to 90%. In addition, in the test with weeds [2] (setting [3]), the “% damage Galium” value is on record as 90%, the “% damage Setaria” value was 95% and the “% damage Sinapis” value is 100%.
Regarding `CCCc1cccc(OCCF)c1S(=O)(=O)NC(=O)Nc1nc(OC)cc(OC)n1` [(26)], in the test on weeds [1] (setting [3]), the “% damage Alopecurus” value amounted to 100%, the “% damage Amaranthus” value is reported as 100%, the “% damage Avena fatua” value is listed as 90% and the “% damage Galium” value was determined as 95%. Further, in the test on weeds [1] (setting [3]), the “% damage Setaria” value worked out at 100% and the “% damage Xanthium” value was found to be 95%. In addition, in the test with weeds [2] (setting [3]), the “% damage Abutilon” value is 100%, the “% damage Alopecurus” value was found to be 95%, the “% damage Amaranthus” value turned out to be 100% and the “% damage Avena fatua” value stood at 90%. For the same compound, in the test on weeds [2] (setting [3]), the “% damage Galium” value came to 90%, the “% damage Setaria” value is given as 90% and the “% damage Sinapis” value stood at 95%.
Turning to `COc1nc(C)nc(NC(=O)NS(=O)(=O)c2c(OCCF)cccc2C(F)(F)F)n1` [Example 3], the activity against weeds result with weeds [1] (soil sprayed 24 hours after sowing, rated after three weeks as % damage vs untreated control) is “very strong activity”; in the test on weeds [2], “very strong activity”.
For the compound `COc1cc(OC)nc(NC(=O)NS(=O)(=O)c2c(C)cccc2OCCCF)n1` [Example 12], the activity against weeds entry in the test with weeds [2] is on record as “very strong activity”.
Still for that read-out and setting: for `COc1nc(C)nc(NC(=O)NS(=O)(=O)c2c(C)cccc2OCCCF)n1` [Example 13] the value was “very strong activity”; for `CCc1cccc(OCCCF)c1S(=O)(=O)NC(=O)Nc1nc(Cl)cc(OC)n1` [Example 18], “very strong activity”.
As for `CN(C)c1nc(NC(=O)NS(=O)(=O)c2c(OCCF)cccc2C(F)(F)F)nc(OCC(F)(F)F)n1` [Example 22], the activity against weeds result in the test on weeds [2] was “very strong activity”.
